# Measured values as given in EP4083217A1, “IN VIVO […] THERAPY FOR THE TREATMENT OF PRIMARY HYP[…] 1” (Centro de Investigaciones Energéticas, Medioambientales y …, priority 2021, dated 2022).
# Test system: HepG2 cells
# Experiment: Transduction enhancer Cyclosporin H in vitro testing (eGFP positive cells by flow cytometry)
# Format: cell-based
# Method: Due to the important relevance of the target tissue origin, HepG2 cells, a hepatic cell line, were used.
# Three days after transduction, the percentage of eGFP positive cells was analysed by Flow Cytometry. All conditions were performed as triple experimental replicates.
smiles,measurement,setting,value
"C/C=C/C[C@@H](C)[C@@H](O)[C@H]1C(=O)N[C@@H](CC)C(=O)N(C)CC(=O)N(C)[C@@H](CC(C)C)C(=O)N[C@@H](C(C)C)C(=O)N(C)[C@@H](CC(C)C)C(=O)N[C@@H](C)C(=O)N[C@H](C)C(=O)N(C)[C@@H](CC(C)C)C(=O)N(C)[C@@H](CC(C)C)C(=O)N(C)[C@H](C(C)C)C(=O)N1C [CsH, Cyclosporin H]",transduction percentage (eGFP positive cells),"HepG2, LV.ET.eGFP.142-3pT MOI 0.3, 4 µM CsH during transduction",37.67%
same,percentage of transduced cells,"HepG2, LV.ET.eGFP.142-3pT MOI 0.3, 16 µM CsH 16 hours pre-treatment and during transduction",31.03%
same,transduction percentage (eGFP positive cells),"HepG2, LV.ET.eGFP.142-3pT MOI 0.3, 16 µM CsH during transduction",51.5%
